{"source": "patent US9844546B2", "about": "“Antibody against human HIF hydroxylase” (OXFORD UNIVERSITY INNOVATION LIMITED, priority 2001, dated 2017)", "key": {"[1]": {"test_system": "HIF-α prolyl-hydroxylase (HIF-PH) of cell extract", "experiment": "Modifying activity (HIF-PH) of cell extract on HIF substrate (Gal/HIF-1α549-582/VP16 or 19:WT), pVHL capture assay", "format": "biochemical, mammalian", "procedure": "The unlabelled HIF-1α substrate was immunopurified on beads, washed, and aliquots incubated under different test conditions in buffer or cell extract. After further washing, the beads were assayed for ability to interact with 35-S labelled pVHL IVTT (21) which was then visualised by fluorography.\nThe capture of labelled pVHL by different HIF substrates was monitored after exposure to various test conditions.\nWe went on to test a series of 2-oxoglutarate analogues which act as competitive inhibitors of this class of enzyme (29) for ability to inhibit HIF-PH as assessed by the ability of cell extracts to modify either HIF polypeptide (19:WT) or a HIF fusion protein (Gal/HIF-1α549-582/VP16) so as to promote pVHL capture. […] In one such experiment the effect of N-oxalylglycine on pVHL capture by a biotinylated HIF polypeptides as substrate was monitored. The WT:19 and 19:Pro564Hyp polypeptides described above were used as substrates. […] The effect of dimethyl-oxalyglycine on HIF-1α expression was also studied. HIF-1α immunoblot analysis of extracts of Hep3B and U2OS cells exposed to dimethyl-oxalylgylcine (0, 0.1 or 1.0 mM) for 6 hours was carried out. […]"}, "[2]": {"test_system": "HIF hydroxylase (HPH activity)", "experiment": "HIF hydroxylase (HPH) inhibition, statements of the description", "format": "biochemical"}, "[3]": {"test_system": "clavaminate synthase", "experiment": "Clavaminate synthase inhibition under standard assay conditions", "format": "biochemical, Streptomyces clavligerus", "from_the_text": "These are commonly methyl or ethyl esters although others are possible."}, "[4]": {"target": "T1, HIF-1/VHL-1 interaction promoting activity of worm extract (Caenorhabditis elegans, UniProt G5EBV0)", "T1 construct": "from tissue; host or cells: whole-worm homogenate in hypotonic extraction buffer", "experiment": "Worm extract modification of C. elegans HIF-1, HA.VHL-1 interaction assay", "format": "biochemical", "conditions": "antagonized by 5 mM 2-OG", "procedure": "Assays for interaction between recombinant VHL and HIF polypeptides conformed to the following experimental design. Recombinant VHL and HIF polypeptides were produced separately in vitro. The HIF polypeptide was then pre-incubated with extract or a recombinant enzyme as described below, then mixed with VHL and incubated in EBC buffer (50 mM Tris pH 7.5, 150 mM NaCl, 0.5% v/v Igepal, 0.5 mM EDTA) at 4° C. for 1 hour, before immunoprecipitation with anti HA antibodies (for HA tagged VHL) or anti Gal antibodies (for Gal4HIF fusions) and analysis by PAGE (Jaakkola et al. (2001) supra).\nPreincubation of C. elegans HIF-1 with worm extract or recombinant EGL-9 was for 30 min at 25° C. Preincubation of mammalian HIF-α polypeptides with cell extract or recombinant enzymes was at 37° C. for 10-30 min unless otherwise stated. For assays of recombinant enzymes, 2-oxoglutarate (2 mM), iron (100 μM), and ascorbate (2 mM) were added to the reaction buffer unless otherwise indicated. Reactions performed in hypoxia were in the stated atmospheric oxygen concentration (balance nitrogen) obtained using a controlled environment Invivo2 400 hypoxia work-station (Ruskinn Technologies) and buffers pre-equilibrated with the appropriate atmosphere. Reactions (50 μl) were performed in open Eppendorf tubes with mixing and stopped by the addition of 20 volumes desferrioxamine (100 μM}. […]"}, "[5]": {"test_system": "U2OS and Hep3B cells", "experiment": "HRE-dependent luciferase reporter assay after transient transfection of NODD/CODD plasmids", "format": "cell-based, human", "conditions": "normoxic conditions, 24 hours", "from_the_text": "Since normoxic HIFα degradation is saturable ^17 and depends on sub-regions within the ODD we tested whether peptides encoding the HIF-1α amino terminal ODD (NODD) and carboxy terminal ODD (CODD) ^21 could affect HIF activity as measured by hypoxia response element (HRE)-dependent reporter gene expression. Briefly, Degradation is prevented by the NODD and CODD polypeptides competing for prolyl hydroxylation and/or VHL binding, thereby blocking subsequent ubiquitination. We constructed plasmids encoding NODD (HIF-1-α aa 343-417) or CODD (HIF-1-α aa 549-582) linked to nuclear localisation sequences and a c-myc epitope tag. These plasmids were transiently co-transfected into U2OS and Hep3B cells with an HRE-dependent luciferase reporter plasmid. […]\nFor reporter gene assays DNA fragments encoding HIF-1α amino acids 343-417, 380-417, 390-417, 390-410, 343-400, 530-95, 530-82, 549-82, 556-74 and 530-62 were generated by PCR using oligonucleotides containing 5′ SacII or 3′ AscI sites and inserted into a pCMV/myc/nuc (Invitrogen) derivative bearing these sites in frame with the NLS and epitope tag. […] To generate tet-operator dependent plasmids the open reading frames from the aa343-417 and aa549-82 constructs were subcloned into pUHD 10 ^34. […]"}, "[6]": {"test_system": "U2OS cells", "experiment": "U2OS cells stably transfected with doxycycline-inducible NODD or CODD", "format": "cell-based, human", "conditions": "doxycycline 0.2-3.2 μg/ml, peaking after 48 hours", "procedure": "To explore further the therapeutic potential of NODD and CODD polypeptides to activate endogenous HIF we stably transfected U2OS cells with doxycycline-inducible NODD (doxNODD) and CODD constructs (doxCODD) encoding identical sequences to those used for transient transfections.\nCells stably transfected with NODD or CODD controlled by the tetracycline-inducible system were exposed to doxycycline. Cell extracts were prepared 0, 16, 24 and 48 hours after exposure to doxycycline. The extracts of doxNODD (HIF-1α aa343-417), doxCODD (HIF-1α aa549-82) and control cells (empty vector) were then immunoblotted for HIF-1α protein. Increased HIF-1α signals were detected from 16-48 hours following doxycycline administration in doxNODD and doxCODD cells but not in empty vector cells. Levels of HIF-1α induced by hypoxia were also measured for comparison. The endogenous HIF-1α induction was doxycycline dose (0.2-3.2 μg/ml) and time dependent, peaking after 48 hours. Maximal levels were about 20% and about 70% of HIF-1α levels seen following hypoxic or DFO treatment of the doxNODD and doxCODD cells respectively. […]\nStably transfected cell lines were generated by transfecting U2OS cells bearing the reverse tetracycline responsive transactivator ^34 and the tetKRAB silencer construct ^36 with pUHD/HIF plasmids. Following selection in G418 (1 mg/ml) individual colonies were picked. DoxNODD (F21) and doxCODD (myc19) clones expressed pUHD/HIF-1aa343-417/3NLS/c-myc and pUHD/HIF-1α aa549-82/3NLS/c-myc respectively. […]\nCell extracts were prepared in buffer (8M urea, 10% glycerol, 1% SDS, 5 mM DTT, 10 mM Tris/pH 6.8), separated by SDS-PAGE and transferred to Immobilon-P membrane (Millipore). Primary antibodies against HIF-1α, c-myc tag and HA tag were from Transduction Laboratories, Innogenex and Roche Molecular respectively. […]"}, "[7]": {"target": "T2, VHL E3 ubiquitin ligase (Homo sapiens, UniProt P40337)", "T2 construct": "expressed in transfected cells; host or cells: 786-0 cells stably transfected with pcDNA3 VHL.HA (whole extract, anti-HA immunoprecipitation)", "experiment": "VHL E3 interaction assay with 35S-labelled tat-ODD IVTT products", "format": "binding", "conditions": "after modification by cell extracts", "from_the_text": "Concordant with the ubiquitination assays discussed above NODD (HIF-1α 343-417) and CODD (HIF-1α 549-582) polypeptides, but not their corresponding proline mutants (HIF-1α 343-417/P402A and HIF-1α 549-582/P564G), bound to VHL E3 ubiquitin ligase after modification by cell extracts. The ^35S-methionine labelled recombinant polypeptides therefore interacted with VHL, supporting the results of the ubiquitination experiments discussed above. The interaction was enhanced by the presence of cell extracts which promote hydroxylation of the prolines at positions 402 and 564 ^19. In contrast, no binding occurred using peptides in which prolines were mutated.\nFor VHL E3 interaction assays ^35S-methionine labelled HIF-1a substrates were prepared by transcription/translation using TnT7 rabbit reticulocyte lysate (Promega). 100 μM DFO was added to the reaction to suppress prolyl hydroxylase activity of the reticulocyte lysate. Substrate modification was achieved by incubation of HIF-1α translate with RCC4 cell lysate in the presence of ferrous chloride (100 μM). Interaction with VHL E3 was analysed as described previously ^21."}}, "note": "Read-outs that look alike come from different tables or passages of the source.", "data": [{"molecule": "O=C(O)CNC(=O)CCS", "note": "[N-(Mercaptopropionyl)glycine]", "values": [{"measurement": "pVHL binding after treatment with cell extract in the presence of inhibitor", "setting": "[1]; 1 mM", "result": "strong binding of pVHL"}, {"measurement": "pVHL binding after treatment with cell extract in the presence of inhibitor", "setting": "[1]; 5 mM", "result": "reduced the amount of pVHL binding"}, {"measurement": "inhibition of HIF hydroxylase / HPH", "setting": "[2]", "result": "inhibitors of HPH"}, {"measurement": "inhibition of clavaminate synthase", "setting": "[3]", "result": "not an inhibitor"}]}, {"molecule": "C[C@H](NC(=O)C(=O)O)C(=O)O", "note": "[N-oxalyl-2S-alanine]", "values": [{"measurement": "inhibitory activity on HIF-1α modification, comparison of enantiomers", "setting": "[1]; 0-2000 μM, RCC4 cell extract", "result": "higher inhibitory activity"}, {"measurement": "inhibition of HIF hydroxylase / HPH", "setting": "[2]", "result": "act as inhibitors"}, {"measurement": "inhibition of HIF hydroxylase / HPH", "setting": "[2]; listed as (S) oxaloalanine", "result": "preferred inhibitor"}, {"measurement": "inhibition of worm extract activity promoting HIF-1/HA.VHL-1 interaction", "setting": "[4]", "result": "strongly inhibited activity"}]}, {"molecule": "NODD: HIF-1α amino terminal ODD polypeptide (aa 343-417) with nuclear localisation sequences and c-myc tag, plasmid expressed (protein, UniProt Q16665 343-417, looked up, fragment, NLS and c-myc tag) SGIIQHDLIFSLQQTECVLKPVESSDMKMTQLFTKVESEDTSSLFDKLKKEPDALTLLAPAAGDTIISLDFGSND", "values": [{"measurement": "HRE-dependent relative luciferase activity", "setting": "[5]", "result": "increased relative luciferase activity"}, {"measurement": "Maximal HIF-1α level relative to hypoxic or DFO treatment", "setting": "[6]", "result": "about 20%"}, {"measurement": "binding to VHL E3 ubiquitin ligase", "setting": "[7]", "result": "bound"}]}]}
